“And” between values parts separate entries of the source, which are not always exact repeats. Equal values may be shown once. ± gives the expanded uncertainty stated by the source.
Settings: 313.15 K; Liquid

Compound	vapor or sublimation pressure
CC(C)OC(C)C [diisopropyl ether]	37.1 ± 0.27 kPa and 37.14 ± 0.27 kPa and 37.12 ± 0.27 kPa
c1ccccc1 [benzene]	24.39 ± 0.18 kPa and 24.38 ± 0.18 kPa and 24.4 ± 0.18 kPa
CCC(C)O (stereo not drawn) [butan-2-ol]	6.062 ± 0.069 kPa [middle of 4 runs]
